The values that follow come from PubChem BioAssay (NCI).

Test systems include SK-MEL-2 melanoma; UO-31 renal; NCI/ADR-RES ovarian; UACC-257 melanoma; A498 renal; HOP-92 NSCLC; OVCAR-3 ovarian; ACHN renal; TK-10 renal; SNB-75 CNS.
What all share (test): growth of human tumour cells (NCI), 48 h

SMILES strings stand for the structures.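 Assay format: 96-well plates, 48-hour exposure. GI50: concentration for 50% inhibition of growth. TGI marks complete inhibition of growth.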

In the case of `COC(=O)[C@H]1[C@@H](O)[C@@]2(O)c3c(OC)cc(O[C@@H]4O[C@@H]([C@H](O)CO)CO[C@H]4OC)cc3O[C@@]2(c2ccc(OC)cc2)[C@@H]1c1ccccc1`, the GI50 in the experiment with SK-MEL-2 melanoma is 0.00354 µM; in the experiment on UO-31 renal, 0.136 µM; in the experiment on UACC-257 melanoma, 0.00627 µM; with A498 renal, 0.00537 µM; with HOP-92 NSCLC, 0.00325 µM; in the experiment on OVCAR-3 ovarian, 0.00378 µM. Moreover, the values for the GI50 with ACHN renal, in the experiment on TK-10 renal and with SNB-75 CNS were 0.0597 µM, 0.0295 µM and 0.004 µM, respectively. Besides, the TGI in the experiment with SK-MEL-2 melanoma is 0.0158 µM; in the experiment on UO-31 renal it was 0.755 µM; in the experiment with NCI/ADR-RES ovarian, greater than 1 µM; in the experiment with UACC-257 melanoma, 0.0451 µM; with A498 renal, 0.0141 µM; with HOP-92 NSCLC, 0.0151 µM. Also, the TGI in the experiment on OVCAR-3 ovarian is 0.035 µM; with ACHN renal, 0.783 µM; in the experiment on TK-10 renal, 0.108 µM; with SNB-75 CNS, 0.0321 µM.

In the case of `O=C(CSc1nc2ccccc2nc1-c1ccccc1)Nc1ccc(Cl)cc1`, the GI50 was 51.7 µM with SK-MEL-2 melanoma; 55.4 µM in the experiment with UO-31 renal; 24.9 µM with NCI/ADR-RES ovarian; greater than 100 µM with UACC-257 melanoma; 31.4 µM with A498 renal; 15.4 µM with HOP-92 NSCLC. For the same compound, the GI50 in the experiment on OVCAR-3 ovarian is 13.1 µM; in the experiment with ACHN renal, 12.3 µM; in the experiment with TK-10 renal, 35.9 µM; in the experiment on SNB-75 CNS, 18.7 µM. In addition, the TGI with SK-MEL-2 melanoma is greater than 100 µM; in the experiment on UO-31 renal, greater than 100 µM; in the experiment with NCI/ADR-RES ovarian, 91.5 µM; in the experiment on UACC-257 melanoma, greater than 100 µM; with A498 renal, greater than 100 µM; in the experiment with HOP-92 NSCLC, 63.5 µM. In addition, the TGI in the experiment on OVCAR-3 ovarian was 40.3 µM; in the experiment on ACHN renal, 47.1 µM; with TK-10 renal, greater than 100 µM; in the experiment with SNB-75 CNS, 59.4 µM.

As for `CCOC(=O)C(Cc1c[nH]c2ccc([N+](=O)[O-])cc12)(NC(C)=O)C(=O)OCC`, the GI50 was greater than 1000 µM in the experiment with SK-MEL-2 melanoma; 80.3 µM in the experiment on UO-31 renal; 53.6 µM with NCI/ADR-RES ovarian; greater than 1000 µM in the experiment with UACC-257 melanoma; 8.18 µM with A498 renal; 75.3 µM in the experiment on OVCAR-3 ovarian. Moreover, the GI50 is 151 µM with ACHN renal, 186 µM with TK-10 renal and 59.2 µM with SNB-75 CNS. Further, the TGI is greater than 1000 µM in the experiment with SK-MEL-2 melanoma; greater than 1000 µM in the experiment with UO-31 renal; greater than 1000 µM in the experiment on NCI/ADR-RES ovarian; greater than 1000 µM in the experiment with UACC-257 melanoma; greater than 390 µM in the experiment with A498 renal; greater than 423 µM in the experiment on HOP-92 NSCLC. Moreover, the TGI was greater than 1000 µM in the experiment on OVCAR-3 ovarian, greater than 1000 µM in the experiment on ACHN renal, greater than 1000 µM in the experiment on TK-10 renal and 215 µM in the experiment with SNB-75 CNS.

As for `CCCOc1ccc(-c2nc(-c3ccc(N=Cc4ccc(N(CCOS(C)(=O)=O)CCOS(C)(=O)=O)cc4C)cc3)cs2)cc1`, the TGI in the experiment on SK-MEL-2 melanoma was 50.9 µM; with UO-31 renal, 48 µM; in the experiment with NCI/ADR-RES ovarian it was greater than 84.6 µM; with UACC-257 melanoma, greater than 100 µM; in the experiment with A498 renal, 24.2 µM; in the experiment with HOP-92 NSCLC, 52.7 µM. Besides, the TGI with OVCAR-3 ovarian turned out to be 55.4 µM; in the experiment with ACHN renal it was 18.7 µM; in the experiment with TK-10 renal it was 41.1 µM; with SNB-75 CNS, 18 µM.
